According to patent US11633370B2, “Use of scavengers of reactive gamma-ketoaldehydes to extend cell lifespan and healthspan” (Vanderbilt University, priority 2016, dated 2023):

How the values were obtained:
[1] = system: N2 WT C. elegans; assay: F3-IsoP quantification by GC/MS, N2; assay type: in vivo; details: Day 1 of adulthood until Day 15
Source text: One of the major stimuli for activation of sirtuins is oxidative stress. […] Indeed, the mitochondrial antioxidant manganese superoxide dismutase (MnSOD) has been identified as one of the major protein targets that is deacetylated by sirtuin isoforms, with deacetylation enhancing the enzymatic activity of MnSOD [60]. If SA indeed preserves SIR-2.1 enzymatic function in vivo, the present inventors hypothesized that SA treatment would dose-dependently decrease biomarkers of oxidant injury in a SIR-2.1-dependent manner. To quantify oxidant injury, the present inventors measured F3-isoprostanes (F3-IsoPs). […] To further characterize SA's ability to preserve SIR-2.1 function, the present inventors assessed acetylation of MnSOD at Lys 122.
F3-Isoprostanes were quantified from SA-treated worms a gas-chromatography-negative ion chemical ionization-mass spectrometry (GC-NICI-MS) approach. […]
Samples were spiked with 248 pg of deuterated internal standards, [^2H4]-15-F2t-IsoP, quantified and calibrated by the method of Milne et al. and acidified to pH<3 with HCl in preparation for further Separation Phase Extraction (SPE). […]
Eluates were dried under nitrogen and F3—IsoPs and resuspended in MeOH for separation by Thin Layer Chromatography (TLC). […] Deuterated F2-IsoP standard was measured at m/z 573. F3—IsoP was measured at m/z 567. […]

[2] = system: N2 WT C. elegans; assay: Real-time RT-PCR (TaqMan) gene expression, N2; assay type: in vivo; details: p<0.05
Source text: First, to validate the microarray results, the present inventors performed real-time RT-PCR on four genes, siah-1, sma-4, F13D12.6, and ets-7 (FIG. 6B). […] Messenger RNA levels for siah-1 and sma-4 were decreased by nearly 25%, as well as F13D12.6 and ets-7 were increased by nearly 25% by SA administration (p<0.05). Pathway Analysis using Gene Ontology (GO) with WEB-based Gene SeT Analysis Toolkit (WEBGESTALT <http://bioinfo.vanderbilt.edu/webgestalt/>) highlighted the metabolic process, lipid metabolic process, proteolysis pathways among many others as being altered favorably by the administration of SA (see Supplemental Data). From the array data confirmed by RT-PCR, the present inventors identified the ETS class transcription factor ETS-7 as a protein of interest. ETS factors are known to be involved in regulating lipid metabolism and regulate lifespan in both Drosophila melanogaster and C. elegans. To investigate the role of ETS-7 in regulating lifespan downstream from salicylamine, SA was administered to the ets-7 gene knock-out strain, RB981 [F19F10.5(ok888) V]). […] The present inventors originally hypothesized that upregulation of ets-7 depends on SIR-2.1, which could result in enhanced longevity. In order to test this, the present inventors carried out real-time RT-PCR quantification of ets-7 in non-functional SIR-2.1 mutant nematodes treated with increasing doses of SA (FIG. 6E).
Total RNA was isolated via the Trizol method, as described previously. Following isolation, 2 μg total RNA was used for cDNA synthesis using the High Capacity cDNA Reverse Transcription Kit (Life Technologies), per manufacturer's instructions. Quantitative real time PCR (Bio-Rad) was conducted using TaqMan Gene Expression Assay Probes (Life Technologies) for each gene. Amplified products was normalized to housekeeping gene, ama-1 (RNA polymerase II) after determining fold difference using the comparative 2^−ΔΔct method. The following probes were used: ama-1 (Assay ID: Ce2462269_m1), ets-7 (Ce02477624_g1), F13D12.6 (Ce02439540_m1), siah-1 (Assay ID: Ce02462269_m1), and sma-4 (Assay ID: Ce202447346_1).

## NCc1ccccc1O [SA, salicylamine]
[1]; 100 μM SA, p<0.01
  decrease in F3-IsoP production: 29%
[1]; 500 μM SA, p<0.005
  decrease in F3-IsoP levels: 44%
[2]; 500 μM SA, Day 15 WT N2
  increase in ets-7 messenger RNA level: 32%
[2]; Day 15 WT N2, SA administration
  increase in ets-7 messenger RNA level: 25%
[2]; Day 15 WT N2
  decrease in siah-1 messenger RNA level: ~25%
  decrease in sma-4 messenger RNA level: ~25%
  increase in F13D12.6 messenger RNA level: ~25%
